What is called pIC50 is −log10 of the IC50, conventionally taken in molar units. High values mean a low IC50, low ones a high IC50.

For seven compounds, IC50 results are on record in US8664244B2, “Compounds as c-Met kinase inhibitors” (Advenchen Pharmaceuticals, LLC, priority 2010, dated 2014).

What all share (assay type): cell-based
One assay relates to SHG44. Put plainly: Tumor cell line inhibition, SHG44.
A further assay concerns PC-3M. Put plainly: Tumor cell line inhibition, PC-3M. The following applies: PC-3M tumor cell line.
The next assay concerns A549. Put plainly: Tumor cell line inhibition, A549.

pIC50: −log10 of the molar value. Read-outs that look alike come from different tables or passages of the source.

As for `COc1ccc(COC(=O)NC2(COc3cc4nccc(Oc5ccc(NC(=O)C6(C(=O)Nc7ccc(F)c(F)c7)CC6)c(F)c5)c4cc3OC)CC2)cc1` [Example 7, 4-methoxybenzyl 1-((4-(4-(1-(3,4-difluorophenylcarbamoyl)cyclopropanecarboxamido)-3-fluoro-phenoxy)-6-methoxyquinolin-7-yloxy)methyl)cyclopropylcarbamate], the negative-log IC50 (pIC50) with SHG44 (SHG-44) was 4.41; in the assay with PC-3M (Homo sapiens), 4.29; with A549 (Homo sapiens), 4.44.
The corresponding values for `COc1cc2c(Oc3ccc(N(C(=O)C4(C(N)=O)CC4)c4ccc(F)c(F)c4)c(F)c3)ccnc2cc1OCC1(NC2CCOCC2)CC1` [Example 9, N-(3,4-difluorophenyl)-N-(2-fluoro-4-(6-methoxy-7-((1-(tetrahydro-2H-pyran-4-ylamino)-cyclopropyl)methoxy)quinolin-4-yloxy)phenyl)cyclopropane-1,1-dicarboxamide] are 5.66, 5.22 and 5.65.
In the same order, the values of `COc1ccc(COC(=O)NC2(COc3cc4nccc(Oc5ccc(NC(=O)C6(C(=O)Nc7ccccc7)CC6)cc5F)c4cc3OC)CC2)cc1` [Example 13, 4-methoxybenzyl 1-((4-(4-(1-(phenylcarbamoyl)cyclopropanecarboxamido)-2-fluoro-phenoxy)-6-methoxyquinolin-7-yloxy)methyl)cyclopropylcarbamate] are 4.59, 4.27 and 4.34.
The corresponding values for `COc1cc2c(Oc3ccc(N(C(=O)C4(C(N)=O)CC4)c4ccc(F)c(F)c4)c(F)c3)ccnc2cc1OCC1(NCC2CC2)CC1` [Example 11, N-(4-(7-((1-(cyclopropylmethylamino)cyclopropyl)methoxy)-6-methoxyquinolin-4-yloxy)-2-fluorophenyl)-N-(3,4-difluorophenyl)cyclopropane-1,1-dicarboxamide] are 6.23, 4.79 and 7.18.
For the compound `COc1ccc(COC(=O)NC2(COc3cc4nccc(Oc5ccc(NC(=O)C6(C(=O)Nc7ccc(F)cc7)CC6)cc5F)c4cc3OC)CC2)cc1` [Example 1, 4-methoxybenzyl-1-((4-(2-fluoro-4-(1-(4-fluorophenylcarbamoyl)cyclopropanecarboxamido)-phenoxy)-6-methoxyquinolin-7-yloxy)methyl)cyclopropylcarbamate], the negative logarithm of the IC50 (pIC50) in the assay with SHG44 was 5.24; in the assay on PC-3M it was 4.45; with A549 it was 5.48.
In the case of `COc1cc2c(Oc3ccc(N(C(=O)C4(C(N)=O)CC4)c4ccccc4)c(F)c3)ccnc2cc1OCC1(N)CC1` [Example 14, N-(4-(7-((1-aminocyclopropyl)methoxy)-6-methoxyquinolin-4-yloxy)-2-fluorophenyl)-N-(phenyl)cyclopropane-1,1-dicarboxamide], the figures for the negative logarithm of the IC50 (pIC50) with SHG44 (SHG-44), in the assay on PC-3M (Homo sapiens) and in the assay with A549 (Homo sapiens) were 5.85, 4.90 and 6.26, respectively.
In the case of `COc1cc2c(Oc3ccc(N(C(=O)C4(C(N)=O)CC4)c4ccc(F)cc4)cc3F)ccnc2cc1OCC1(NC2CCOCC2)CC1` [Example 3, N-(3-fluoro-4-(6-methoxy-7-((1-(tetrahydro-2H-pyran-4-ylamino)cyclopropyl)methoxy)quinolin-4-yloxy)phenyl)-N-(4-fluorophenyl)cyclopropane-1,1-dicarboxamide], the pIC50 was 6.70 with SHG44 (SHG-44), 5.31 with PC-3M (Homo sapiens) and 7.39 in the assay with A549 (Homo sapiens).
